Among the data in PMC3633919, “Identification and Characterization of Pheromone Receptors and Interplay between Receptors and Pheromone Binding Proteins in the Diamondback Moth, Plutella xyllostella” (PLoS ONE, 2013) are EC50 values, retold here.

The target in one assay is T1, PxylOR4/PxylOrco (Plutella xylostella, UniProt M9ZZM3).
T1 construct: full-length untagged ORF 1209 bp (402 residues); pSP64T cRNA co-injected with PxylOrco cRNA in Xenopus laevis oocytes; with Odorant receptor coreceptor
T1 sequence (M9ZZM3 1-402): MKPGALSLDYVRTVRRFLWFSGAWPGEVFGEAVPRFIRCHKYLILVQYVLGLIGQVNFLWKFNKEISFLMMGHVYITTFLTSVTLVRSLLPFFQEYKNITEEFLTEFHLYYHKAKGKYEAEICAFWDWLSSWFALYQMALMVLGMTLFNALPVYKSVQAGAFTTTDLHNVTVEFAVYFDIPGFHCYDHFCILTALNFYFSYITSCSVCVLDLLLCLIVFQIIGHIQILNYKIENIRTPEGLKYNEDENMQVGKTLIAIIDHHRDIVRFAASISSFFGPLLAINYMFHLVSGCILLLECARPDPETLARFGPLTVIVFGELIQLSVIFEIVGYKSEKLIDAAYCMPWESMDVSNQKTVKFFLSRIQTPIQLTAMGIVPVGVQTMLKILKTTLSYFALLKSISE
T1 sequence (D0EZE1 1-471 partner): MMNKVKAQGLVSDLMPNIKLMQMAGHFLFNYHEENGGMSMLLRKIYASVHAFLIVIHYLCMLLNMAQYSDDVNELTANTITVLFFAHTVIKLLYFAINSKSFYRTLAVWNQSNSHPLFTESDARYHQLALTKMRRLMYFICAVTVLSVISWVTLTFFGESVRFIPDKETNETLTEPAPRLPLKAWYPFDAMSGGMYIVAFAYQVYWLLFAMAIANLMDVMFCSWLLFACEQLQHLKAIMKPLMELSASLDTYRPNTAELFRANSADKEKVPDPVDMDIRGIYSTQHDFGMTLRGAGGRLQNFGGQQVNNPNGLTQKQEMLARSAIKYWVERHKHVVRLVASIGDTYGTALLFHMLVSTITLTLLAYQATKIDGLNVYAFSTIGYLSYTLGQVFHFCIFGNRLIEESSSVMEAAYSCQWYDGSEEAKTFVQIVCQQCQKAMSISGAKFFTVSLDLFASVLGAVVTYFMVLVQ
Kind of assay: two-electrode voltage clamp, Xenopus oocytes. Type of assay: cell-based.

For another assay, the target named is T2, PxylOR1/PxylOrco (Plutella xylostella, UniProt N0A395).
T2 construct: full-length untagged ORF 1269 bp (422 residues); pSP64T cRNA co-injected with PxylOrco cRNA in Xenopus laevis oocytes; with Odorant receptor coreceptor
T2 sequence (N0A395 1-422): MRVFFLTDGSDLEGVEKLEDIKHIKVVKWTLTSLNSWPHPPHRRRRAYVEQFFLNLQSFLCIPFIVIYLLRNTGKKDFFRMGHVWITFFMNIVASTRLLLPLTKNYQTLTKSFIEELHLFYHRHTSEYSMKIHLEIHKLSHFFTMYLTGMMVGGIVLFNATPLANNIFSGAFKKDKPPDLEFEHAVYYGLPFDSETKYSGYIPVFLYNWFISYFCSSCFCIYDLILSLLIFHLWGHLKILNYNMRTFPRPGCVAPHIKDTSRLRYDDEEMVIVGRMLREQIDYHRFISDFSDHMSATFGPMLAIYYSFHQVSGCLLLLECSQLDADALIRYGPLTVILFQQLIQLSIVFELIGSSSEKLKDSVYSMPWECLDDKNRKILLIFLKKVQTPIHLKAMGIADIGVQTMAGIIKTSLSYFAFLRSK
T2 sequence (D0EZE1 1-471 partner): T1 sequence (D0EZE1 1-471 partner)
Kind of assay: two-electrode voltage clamp, Xenopus oocytes. In kind it is cell-based.

Consider `C/C=C/C/C=C\CCCCCCCCOC(C)=O` [Z9,E12-14:Ac], for which a half-maximal effect at PxylOR4/PxylOrco (EC50) was put at 1940 nM.

For `CCCC/C=C\CCCCCCCCOC(C)=O` [Z9-14:Ac, (Z)-9-tetradecenyl acetate], the EC50 (in general, the concentration at which the effect is half-maximal) on PxylOR4/PxylOrco was 243 nM.

`CCCC/C=C\CCCCCCCCCC=O` [Z11-16:Ald, (Z)-11-hexadecenal]: a half-maximal response at PxylOR1/PxylOrco (EC50) required 23900 nM.
